Calls of active or inactive are those of the source. The rule behind the calls is not given here.
How the values were obtained:
MDA-MB-231 [1] = assay: Antiproliferative activity against human MDA-MB-231 cells assessed as inhibition of cell proliferation incubated for 72 hrs by MTT assay; type: functional, cell-based; conditions: MDA-MB-231, 72 h
MDA-MB-231 [2] = assay: Antiproliferative activity against human MDA-MB-231 cells assessed as inhibition of cell proliferation incubated for 72 hrs in presence of 4-((8-hydroxyoctyl)oxy)-3-(phenylsulfonyl)-1,2,5-oxadiazole 2-oxide by MTT assay; type: functional, cell-based; conditions: MDA-MB-231, 72 h
MDA-MB-231 [3] = assay: Induction of apoptosis in human MDA-MB-231 cells assessed as late apoptotic cells at 1 uM incubated for 72 hrs by Annexin V-FITC/PI staining based flow cytometry analysis (reference value: 0.11%); type: functional
MDA-MB-231 [4] = assay: Induction of apoptosis in human MDA-MB-231 cells assessed as live cells at 1 uM incubated for 72 hrs by Annexin V-FITC/PI staining based flow cytometry analysis (reference value: 97.51%); type: functional
MDA-MB-231 [5] = assay: Induction of NO production in human MDA-MB-231 cells incubated for 72 hrs by DAF-FM-DA dye based flow cytometry analysis; type: functional, cell-based; conditions: dose 1-4 µM
MDA-MB-231 [6] = assay: Inhibition of focal adhesion formation in human MDA-MB-231 cells assessed as reduction in anti-vinculin antibodies fluorescence signal at 4 uM pretreated with carboxy-PTIO for 1 hr followed by compound addition and further incubated for 72 hrs by confocal microscopic analysis; type: functional, cell-based
Focal adhesion kinase 1 [7] = molecular target: T1, Focal adhesion kinase 1 (Homo sapiens, UniProt Q05397); assay: Inhibition of FAK-mediated signaling pathway in human MDA-MB-231 cells assessed as reduction in MMP-9 protein level at 4 uM pretreated with carboxy-PTIO followed by compound addition and further incubated for 72 hrs by Western blot analysis; type: cell-based
Target sequence in this assay (Q05397 2-1052 limits assumed): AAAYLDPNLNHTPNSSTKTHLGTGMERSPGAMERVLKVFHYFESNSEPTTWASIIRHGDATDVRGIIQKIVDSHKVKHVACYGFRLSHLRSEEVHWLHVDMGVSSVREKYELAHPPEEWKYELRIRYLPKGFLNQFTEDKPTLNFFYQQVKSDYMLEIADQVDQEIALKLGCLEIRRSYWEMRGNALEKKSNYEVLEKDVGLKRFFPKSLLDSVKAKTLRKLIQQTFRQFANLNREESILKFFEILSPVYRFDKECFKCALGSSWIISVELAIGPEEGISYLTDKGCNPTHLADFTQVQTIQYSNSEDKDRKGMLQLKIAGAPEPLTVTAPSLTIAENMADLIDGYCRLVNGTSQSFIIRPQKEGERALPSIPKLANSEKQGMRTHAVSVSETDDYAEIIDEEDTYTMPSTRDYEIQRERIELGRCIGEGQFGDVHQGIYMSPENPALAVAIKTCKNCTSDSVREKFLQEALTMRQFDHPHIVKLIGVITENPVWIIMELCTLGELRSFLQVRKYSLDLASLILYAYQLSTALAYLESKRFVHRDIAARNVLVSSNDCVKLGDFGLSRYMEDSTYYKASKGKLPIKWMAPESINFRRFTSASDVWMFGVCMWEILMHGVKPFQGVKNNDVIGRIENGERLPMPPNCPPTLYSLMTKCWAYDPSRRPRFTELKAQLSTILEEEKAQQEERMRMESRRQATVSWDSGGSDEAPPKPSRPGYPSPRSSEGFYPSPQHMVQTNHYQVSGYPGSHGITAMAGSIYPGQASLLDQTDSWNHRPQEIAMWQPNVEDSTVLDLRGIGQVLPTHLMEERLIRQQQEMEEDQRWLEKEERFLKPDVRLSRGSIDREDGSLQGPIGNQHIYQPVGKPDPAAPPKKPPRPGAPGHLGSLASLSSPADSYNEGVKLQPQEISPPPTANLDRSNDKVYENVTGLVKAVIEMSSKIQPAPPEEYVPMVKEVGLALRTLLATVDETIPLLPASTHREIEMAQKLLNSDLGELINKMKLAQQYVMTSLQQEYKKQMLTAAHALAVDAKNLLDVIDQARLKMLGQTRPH

[8] = Selectivity index, ratio of IC50 for human MCF-10A cells to IC50 for human MDA-MB-231 cells; type: toxicity; conditions: MCF-10A cells versus MDA-MB-231 cells, read-out: Ratio IC50
MDA-MB-231 [9] = assay: Inhibition of cell invasion in human MDA-MB-231 cells assessed as reduction in number of invasive cells incubated for 48 hrs by crystal violet staining based inverted microscopic analysis; type: functional; conditions: dose 1-4 µM
MDA-MB-231 [10] = assay: Effect on FAK protein expression in human MDA-MB-231 cells at 1 to 4 uM incubated for 72 hrs by Western blot analysis; type: functional, cell-based; conditions: dose 1-4 µM
MDA-MB-231 [11] = assay: Induction of apoptosis in human MDA-MB-231 cells assessed as early apoptotic cells at 1 uM incubated for 72 hrs by Annexin V-FITC/PI staining based flow cytometry analysis (reference value: 2.16%); type: functional
[12] = Toxicity in BALB/c nude mouse xenografted with human MDA-MB-231 cells assessed as reduction in body weight at 50 to 30 mg/kg, po administered once daily for 30 days and measured every 3 days; type: organism-based; conditions: in vivo, 720 h, dose 50-30 mg/kg, time 30 day
MDA-MB-231 [13] = assay: Inhibition of stress fibers formation in human MDA-MB-231 cells assessed as reduction in FITC-conjugated phalloidin fluorescence signal at 4 uM pretreated with carboxy-PTIO for 1 hr followed by compound addition and further incubated for 72 hrs by confocal microscopic analysis; type: functional, cell-based
Focal adhesion kinase 1 [14] = molecular target: T1, Focal adhesion kinase 1; assay: Inhibition of FAK-mediated signaling pathway in human MDA-MB-231 cells assessed as reduction in MMP-2 protein level at 4 uM pretreated with carboxy-PTIO followed by compound addition and further incubated for 72 hrs by Western blot analysis; type: cell-based
Target sequence in this assay (Q05397 2-1052 limits assumed): as above

Focal adhesion kinase 1 [15] = molecular target: T1, Focal adhesion kinase 1; assay: Inhibition of FAK-mediated signaling pathway in human MDA-MB-231 cells assessed as reduction in MMP-2 protein level incubated for 72 hrs by Western blot analysis; type: cell-based; conditions: dose 1-4 µM
Target sequence in this assay (Q05397 2-1052 limits assumed): as above

MDA-MB-231 [16] = assay: Inhibition of focal adhesion formation in human MDA-MB-231 cells assessed as reduction in number of focal adhesions at 4 uM incubated for 72 hrs by quantitative analysis; type: functional, cell-based
MDA-MB-231 [17] = assay: Inhibition of stress fibers formation in human MDA-MB-231 cells assessed as reduction in total area at 4 uM incubated for 72 hrs; type: functional, cell-based
MDA-MB-453 = assay: Antiproliferative activity against human MDA-MB-453 cells assessed as inhibition of cell proliferation incubated for 72 hrs by MTT assay; type: functional, cell-based; conditions: MDA-MB-453, 72 h
MDA-MB-231 [18] = assay: Induction of apoptosis in human MDA-MB-231 cells assessed as late apoptotic cells at 2 uM incubated for 72 hrs by Annexin V-FITC/PI staining based flow cytometry analysis (reference value: 0.11%); type: functional
MDA-MB-231 [19] = assay: Inhibition of stress fibers formation in human MDA-MB-231 cells assessed as reduction in FITC-conjugated phalloidin fluorescence signal at 4 uM incubated for 72 hrs by confocal microscopic analysis; type: functional, cell-based
MDA-MB-231 [20] = assay: Induction of apoptosis in human MDA-MB-231 cells assessed as early apoptotic cells at 4 uM incubated for 72 hrs by Annexin V-FITC/PI staining based flow cytometry analysis (reference value: 2.16%); type: functional
Focal adhesion kinase 1 [21] = molecular target: T1, Focal adhesion kinase 1; assay: Inhibition of FAK-mediated signaling pathway in human MDA-MB-231 cells assessed as reduction in phosphorylated AKT protein level at 4 uM pretreated with carboxy-PTIO followed by compound addition and further incubated for 72 hrs by Western blot analysis; type: cell-based
Target sequence in this assay (Q05397 2-1052 limits assumed): as above

Focal adhesion kinase 1 [22] = molecular target: T1, Focal adhesion kinase 1; assay: Inhibition of FAK (unknown origin)
Target sequence in this assay (Q05397 whole entry): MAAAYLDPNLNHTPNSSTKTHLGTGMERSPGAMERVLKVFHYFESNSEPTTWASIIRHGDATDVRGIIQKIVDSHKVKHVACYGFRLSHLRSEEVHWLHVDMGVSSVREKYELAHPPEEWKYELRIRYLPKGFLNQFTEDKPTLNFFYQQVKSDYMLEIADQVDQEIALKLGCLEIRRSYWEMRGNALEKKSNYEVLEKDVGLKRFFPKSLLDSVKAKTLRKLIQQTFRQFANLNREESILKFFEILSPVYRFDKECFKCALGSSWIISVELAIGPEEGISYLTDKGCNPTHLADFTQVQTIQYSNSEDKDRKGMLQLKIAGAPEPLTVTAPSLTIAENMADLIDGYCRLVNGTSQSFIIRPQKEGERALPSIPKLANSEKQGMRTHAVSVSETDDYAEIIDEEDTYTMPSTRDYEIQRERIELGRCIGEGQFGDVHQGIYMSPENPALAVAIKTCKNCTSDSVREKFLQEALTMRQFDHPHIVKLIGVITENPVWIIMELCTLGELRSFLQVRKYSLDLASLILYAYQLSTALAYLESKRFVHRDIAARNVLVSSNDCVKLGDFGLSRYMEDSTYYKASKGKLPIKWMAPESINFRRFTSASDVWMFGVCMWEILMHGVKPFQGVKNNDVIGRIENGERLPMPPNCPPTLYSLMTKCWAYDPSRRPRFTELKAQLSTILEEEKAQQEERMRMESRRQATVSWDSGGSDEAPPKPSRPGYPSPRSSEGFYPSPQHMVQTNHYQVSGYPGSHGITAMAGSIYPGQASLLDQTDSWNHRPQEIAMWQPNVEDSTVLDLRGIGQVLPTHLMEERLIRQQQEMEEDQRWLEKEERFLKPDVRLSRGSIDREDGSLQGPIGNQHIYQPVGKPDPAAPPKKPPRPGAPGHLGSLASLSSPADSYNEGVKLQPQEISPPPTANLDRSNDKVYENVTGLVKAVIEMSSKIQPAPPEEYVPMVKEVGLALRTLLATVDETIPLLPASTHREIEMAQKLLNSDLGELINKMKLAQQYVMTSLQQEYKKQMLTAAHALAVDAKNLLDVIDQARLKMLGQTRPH

MDA-MB-231 [23] = assay: Inhibition of stress fibers formation in human MDA-MB-231 cells assessed as reduction in number of stress fibers at 4 uM incubated for 72 hrs by quantitative analysis; type: functional, cell-based
MDA-MB-231 [24] = assay: Antitumor activity against human MDA-MB-231 cells xenografted in po dosed BALB/c nude mouse assessed as reduction in number of lung tumor nodules administered once daily for 30 days; type: functional, organism-based; conditions: dose 15-30 mg/kg, time 30.0 day
Focal adhesion kinase 1 [25] = molecular target: T1, Focal adhesion kinase 1; assay: Inhibition of FAK autophosphorylation at Y397 residue in human MDA-MB-231 cells at 4 uM pretreated with carboxy-PTIO followed by compound addition and further incubated for 72 hrs by Western blot analysis; type: cell-based
Target sequence in this assay (Q05397 2-1052 limits assumed): as the sequence (Q05397 2-1052 limits assumed) above

[26] = Toxicity in BALB/c nude mouse xenografted with human MDA-MB-231 cells assessed as animal death at 50 to 30 mg/kg, po administered once daily for 30 days; type: organism-based; conditions: in vivo, 720 h, dose 50-30 mg/kg, time 30 day
MDA-MB-157 = assay: Antiproliferative activity against human MDA-MB-157 cells assessed as inhibition of cell proliferation incubated for 72 hrs by MTT assay; type: functional, cell-based; conditions: MDA-MB-157, 72 h
MDA-MB-231 [27] = assay: Induction of apoptosis in human MDA-MB-231 cells assessed as live cells at 2 uM incubated for 72 hrs by Annexin V-FITC/PI staining based flow cytometry analysis (reference value: 97.51%); type: functional
MDA-MB-231 [28] = assay: Antiproliferative activity against human MDA-MB-231 cells assessed as inhibition of cell proliferation at 1 uM pretreated with carboxy-PTIO at 5 to 20 uM for 1 hr followed by compound addition and further incubated for 72 hrs by MTT assay; type: functional, cell-based
MDA-MB-231 [29] = assay: Induction of apoptosis in human MDA-MB-231 cells assessed as dead cells at 2 uM incubated for 72 hrs by Annexin V-FITC/PI staining based flow cytometry analysis (reference value: 0.23%); type: functional
MDA-MB-231 [30] = assay: Potency index, ratio of TAE226 IC50 to test compound IC50 for antiproliferative activity against human MDA-MB-231 cells assessed as inhibition of cell proliferation incubated for 72 hrs by MTT assay; type: functional
MDA-MB-231 [31] = assay: Induction of apoptosis in human MDA-MB-231 cells assessed as early apoptotic cells at 2 uM incubated for 72 hrs by Annexin V-FITC/PI staining based flow cytometry analysis (reference value: 2.16%); type: functional
MDA-MB-231 [32] = assay: Induction of apoptosis in human MDA-MB-231 cells assessed as live cells at 4 uM incubated for 72 hrs by Annexin V-FITC/PI staining based flow cytometry analysis (reference value: 97.51%); type: functional
Focal adhesion kinase 1 [33] = molecular target: T1, Focal adhesion kinase 1; assay: Inhibition of FAK-mediated signaling pathway in human MDA-MB-231 cells assessed as reduction in MMP-9 protein level incubated for 72 hrs by Western blot analysis; type: cell-based; conditions: dose 1-4 µM
Target sequence in this assay (Q05397 2-1052 limits assumed): as above

MDA-MB-231 [34] = assay: Induction of apoptosis in human MDA-MB-231 cells assessed as dead cells at 4 uM incubated for 72 hrs by Annexin V-FITC/PI staining based flow cytometry analysis (reference value: 0.23%); type: functional
MDA-MB-231 [35] = assay: Antiproliferative activity against human MDA-MB-231 cells assessed as inhibition of cell proliferation at 1 uM incubated for 72 hrs by MTT assay; type: functional, cell-based
MDA-MB-231 [36] = assay: Inhibition of focal adhesion formation in human MDA-MB-231 cells assessed as reduction in anti-vinculin antibodies fluorescence signal at 4 uM incubated for 72 hrs by confocal microscopic analysis; type: functional, cell-based
MDA-MB-231 [37] = assay: Antiproliferative activity against human MDA-MB-231 cells assessed as inhibition of cell proliferation at 5 uM incubated for 72 hrs by MTT assay relative to control; type: functional
MDA-MB-231 [38] = assay: Antimigratory activity in human MDA-MB-231 cells incubated for 48 hrs by scratch wound healing assay; type: functional, cell-based; conditions: dose 1-4 µM
Focal adhesion kinase 1 [39] = molecular target: T1, Focal adhesion kinase 1; assay: Inhibition of FAK autophosphorylation at Y397 residue in human MDA-MB-231 cells incubated for 72 hrs by Western blot analysis; type: cell-based; conditions: dose 1-4 µM
Focal adhesion kinase 1 [40] = molecular target: T1, Focal adhesion kinase 1; assay: Inhibition of FAK-mediated signaling pathway in human MDA-MB-231 cells assessed as reduction in phosphorylated AKT protein level incubated for 72 hrs by Western blot analysis; type: cell-based; conditions: dose 1-4 µM
[41] = Cytotoxicity against human MCF-10A cells assessed as inhibition of cell proliferation incubated for 72 hrs by MTT assay; type: toxicity, cell-based
MDA-MB-231 [42] = assay: Induction of apoptosis in human MDA-MB-231 cells assessed as dead cells at 1 uM incubated for 72 hrs by Annexin V-FITC/PI staining based flow cytometry analysis (reference value: 0.23%); type: functional
MDA-MB-231 [43] = assay: Inhibition of focal adhesion formation in human MDA-MB-231 cells assessed as reduction in total area at 4 uM incubated for 72 hrs; type: functional, cell-based
MDA-MB-231 [44] = assay: Induction of apoptosis in human MDA-MB-231 cells assessed as late apoptotic cells at 4 uM incubated for 72 hrs by Annexin V-FITC/PI staining based flow cytometry analysis (reference value: 0.11%); type: functional

SMILES: CNC(=O)c1ccccc1Nc1nc(Nc2ccc(CC(=O)O)cc2)ncc1Cl
- IC50 (MDA-MB-231 [1]): 1950 nM
- IC50 (MDA-MB-231 [2]): 1220 nM

SMILES: CNC(=O)c1ccccc1Nc1nc(Nc2ccc(CC(=O)OCCCCCCCCOc3no[n+]([O-])c3S(=O)(=O)c3ccccc3)cc2)ncc1Cl
- Activity (MDA-MB-231 [3]): 6.46%
- Activity (MDA-MB-231 [4]): 77.01%
- Activity (MDA-MB-231 [5]): Dose-Dependent Effect
- inhibition (MDA-MB-231 [6]): inactive
- inhibition (Focal adhesion kinase 1 [7]): inactive
- selectivity ratio [8]: 19.1
- inhibition (MDA-MB-231 [9]): Dose-Dependent Effect
- Activity (MDA-MB-231 [10]): inactive
- Activity (MDA-MB-231 [11]): 12.6%
- Activity [12]: Non-Toxic
- IC50 (MDA-MB-231 [1]): 126 nM
- inhibition (MDA-MB-231 [13]): inactive
- inhibition (Focal adhesion kinase 1 [14]): inactive
- inhibition (Focal adhesion kinase 1 [15]): Dose-Dependent Effect
- inhibition (MDA-MB-231 [16]): Active
- inhibition (MDA-MB-231 [17]): Active
- IC50 (MDA-MB-453): 159 nM
- Activity (MDA-MB-231 [18]): 13.83%
- inhibition (MDA-MB-231 [19]): Active
- Activity (MDA-MB-231 [20]): 56.72%
- inhibition (Focal adhesion kinase 1 [21]): inactive
- IC50 (Focal adhesion kinase 1 [22]): 27.4 nM
- inhibition (MDA-MB-231 [23]): Active
- Activity (MDA-MB-231 [24]): Dose-Dependent Effect
- inhibition (Focal adhesion kinase 1 [25]): inactive
- Activity [26]: Non-Toxic
- IC50 (MDA-MB-157): 167 nM
- Activity (MDA-MB-231 [27]): 74.91%
- Activity (MDA-MB-231 [28]): inactive
- Activity (MDA-MB-231 [29]): 1.38%
- Ratio IC50 (MDA-MB-231 [30]): ~10
- Activity (MDA-MB-231 [31]): 9.88%
- Activity (MDA-MB-231 [32]): 26%
- inhibition (Focal adhesion kinase 1 [33]): Dose-Dependent Effect
- Activity (MDA-MB-231 [34]): 3.34%
- Activity (MDA-MB-231 [35]): Active
- inhibition (MDA-MB-231 [36]): Active
- inhibition at 5 µM (MDA-MB-231 [37]): > 92%
- Activity (MDA-MB-231 [38]): Dose-Dependent Effect
- inhibition (Focal adhesion kinase 1 [39]): Dose-Dependent Effect
- inhibition (Focal adhesion kinase 1 [40]): Dose-Dependent Effect
- IC50 at 72 h [41]: 2400 nM
- Activity (MDA-MB-231 [42]): 3.94%
- inhibition (MDA-MB-231 [43]): Active
- Activity (MDA-MB-231 [44]): 13.94%
